Assay results published in US20150232876A1, “Use of a Receptor Kinase Having LysM Motifs in Order to Improve the Response of Plants to Lipochitooligosaccharides” (INSTITUT NATIONAL DE LA RECHERCHE AGRONOMIQUE, priority 2012, published 2015).
Blank lines part the entries; values can stand above or below the molecule they belong to.

Assays:
LYR3 = LYR3 (Medicago truncatula, UniProt G7KAT5); assay: Saturation and competitive binding on LYR3-YFP expressed in N. benthamiana leaf membrane fractions; settings: for Ki: LYR3-YFP in N. benthamiana leaf membranes, competition with 0.9 nM LCO-IV(35S, C16:2Δ2,9), read-out: Affinity (nM) for LYR3 (Ki); for affinity / competition for binding to LYR3 (in words): competition with radioactive LCO
Text: Genes LYR3, LYK9 and LYR6 were inserted into a binary vector, fused in C-terminal with a fluorescent protein (Yellow Fluorescent Protein: YFP) and introduced into Nicotiana benthamiana leaves using agroinfiltration by Agrobacterium tumefaciens. Meanwhile, NFP and LYK3 genes which encode putative receptors […] Nod factors were inserted into the same vectors and expressed in the same conditions.
3 days after agro-infiltration, leaves of N. benthamiana expressing the different constructs were harvested and ground in liquid nitrogen. Membrane fractions were prepared from the ground material, using the same protocol as that described above for the preparation of microsomal fractions, except that 0.6% (w/v) of polyvinyl-polypyrrolidone were added to extraction buffer. After centrifugation at 3000×g, the supernatant was collected and centrifuged at 45000×g. The resulting (membrane fraction) pellet was resuspended in binding buffer, and stored at −80° C. in the presence of 10% or 50% glycerol, until use.
Membrane proteins were separated by 10% polyacrylamide gel electrophoresis in SDS, and transferred onto nitrocellulose membrane, and detection of recombinant proteins made using anti-GFP antibody. Meanwhile, the properties of specific binding to LCOs were assessed by equilibrium binding, as described in Example 1, using 0.8 to 2.4 nM of LCO-IV (^35S, C16:2Δ2, 9) +/−2 μM of unlabeled LCO-IV (S, C16: 2Δ2, 9), and 25 micrograms to 80 micrograms of membrane protein, depending of the expression level of the protein labeled with YFP.
To further characterize the binding properties of the protein LYR3, saturation binding experiments using LCO-IV (^35S, C16:2Δ2, 9) and competitive binding experiments in the presence of different COs or LCOs were performed.

GmLYR3-1 = GmLYR3-1 (Glycine max, UniProt A5YJW2); assay: Equilibrium, saturation and competitive binding on MtLYR3 ortholog expressed in N. benthamiana leaves; settings: GmLYR3-1; for Ki: read-out: Affinity (Ki)
Text: (§1) In legumes, MtLYR3 orthologs have been identified in P. sativum, P. vulgaris and L. japonicus. In G. max orthologs exist in duplicate due to a duplication of the genome. The corresponding genes have been cloned and sequenced. A few differences in sequence compared with sequences in the databases were found which could be explained by the use of different varieties of plants or by sequencing errors in databases. The cloned genes were introduced into binary vectors, in C-terminal fusion with the fluorescent protein YFP, and introduced into Nicotiana benthamiana leaves using agroinfiltration by Agrobacterium tumefaciens, as described above in Example 3. The membrane fractions were isolated, their protein content was analyzed by electrophoresis under denaturing conditions, followed by immunodetection using anti-GFP antibody as described in Example 3, and their ability to interact with LCOs was determined by equilibrium binding, as described in Example 1, in the presence of 1 nM LCO-IV (S^35, C16:2Δ2, 9). The value of specific binding is determined by the value of difference between the total binding and the nonspecific binding obtained for incubation in the presence of an excess (2 μM) of unlabeled ligand. For comparison, the ability to interact of LjNFR5 and LjNFR1 receptors, identified in L. japonicus to play a role in nodulation by a genetic approach (MADSEN et al, Nature, 425, 637-40, 2003. RADUTOIU et al., Nature, 425, 585-92, 2003a) and respective orthologs of LYK3 and NFP in M. truncatula was determined under the same conditions.
(§2) To further characterize the binding properties of MtLYR3 orthologs to LCOs, saturation and competitive binding experiments in the presence of different COs or LCOs were performed.

PvLYR3 = PvLYR3 (Phaseolus vulgaris, UniProt V7CFC1); assay: as above; settings: PvLYR3; for Ki: read-out: Affinity (Ki)
Text: as §1, §2

GmLYR3-11 = GmLYR3-11 (Glycine max, UniProt I1LHL9); assay: as above; settings: GmLYR3-11; for Ki: read-out: Affinity (Ki)
Text: as §1, §2

LjLYS12 = LjLYS12 (Lotus japonicus, UniProt D3KTZ9); assay: as above; settings: LjLYS12; for Ki: read-out: Affinity (Ki)
Text: as §1, §2

PsLYR3 = PsLYR3 (Lathyrus oleraceus, UniProt A0A9D5BD18); assay: as above; design: species or system Pisum sativum; settings: PsLYR3; for Ki: read-out: Affinity (Ki)
Text: as §1, §2

[1] = system: 100 kDa polypeptide (MtNFBS2); assay: Photolabeling of the 100 kDa polypeptide in membrane fractions, with excess competitors; format: binding, Medicago truncatula; settings: 2 μM competitor, 5 nM azido ligand, dmi3 membrane fraction
Text: To assess the molecular mass of the affine protein of Nod factors responsible for binding properties of MtNFBS2, a photolabeling with Nod factors analogs containing a photoactivatable group, which after irradiation in a given wavelength reactive species which can form a covalent bond with the surrounding molecules, has been taken. […] homologues of these molecules have been synthesized and labeled with ^35S to enable detection of the stable complex ligand/binding protein.
For photolabeling, 5 nM of radioactive and photoactivatable ligand, alone or in the presence of an excess (2 μM) different competitors were incubated in binding buffer, in the same conditions as described in Example 1 above for the binding experiments at equilibrium, with 300 micrograms of membrane protein fraction obtained from cultured cells of wild-type Medicago truncatula (A 17), or the dmi3 mutant of Medicago truncatula. After 1 hour of incubation, the samples were irradiated for 5 min at 254 nm or 10 min at 365 nm with a fluorescent tube at a distance of 4 cm. The free ligand was removed by centrifugation, and the membrane pellet was washed two times in binding buffer.
The membrane pellet proteins were separated by polyacrylamide gel electrophoresis in 10% SDS, and transferred onto nitrocellulose membrane, and detection was carried out by autoradiography.

Sequence of PvLYR3 (V7CFC1 entry or part of it): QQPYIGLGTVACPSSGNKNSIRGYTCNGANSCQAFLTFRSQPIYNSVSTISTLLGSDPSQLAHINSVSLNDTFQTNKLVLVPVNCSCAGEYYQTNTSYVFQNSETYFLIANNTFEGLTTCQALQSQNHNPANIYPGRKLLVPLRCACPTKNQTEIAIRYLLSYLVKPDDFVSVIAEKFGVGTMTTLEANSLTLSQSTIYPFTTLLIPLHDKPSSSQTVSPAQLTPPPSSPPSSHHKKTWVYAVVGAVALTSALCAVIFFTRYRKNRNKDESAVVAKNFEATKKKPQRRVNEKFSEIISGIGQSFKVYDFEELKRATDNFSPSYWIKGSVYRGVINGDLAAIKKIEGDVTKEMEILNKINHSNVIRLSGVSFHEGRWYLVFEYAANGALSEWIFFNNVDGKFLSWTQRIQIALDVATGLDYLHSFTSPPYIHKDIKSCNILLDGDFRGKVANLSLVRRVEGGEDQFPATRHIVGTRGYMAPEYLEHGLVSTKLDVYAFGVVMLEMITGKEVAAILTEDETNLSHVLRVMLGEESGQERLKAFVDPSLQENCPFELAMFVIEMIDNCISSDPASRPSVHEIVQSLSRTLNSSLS
Sequence of LjLYS12 (D3KTZ9 entry or part of it): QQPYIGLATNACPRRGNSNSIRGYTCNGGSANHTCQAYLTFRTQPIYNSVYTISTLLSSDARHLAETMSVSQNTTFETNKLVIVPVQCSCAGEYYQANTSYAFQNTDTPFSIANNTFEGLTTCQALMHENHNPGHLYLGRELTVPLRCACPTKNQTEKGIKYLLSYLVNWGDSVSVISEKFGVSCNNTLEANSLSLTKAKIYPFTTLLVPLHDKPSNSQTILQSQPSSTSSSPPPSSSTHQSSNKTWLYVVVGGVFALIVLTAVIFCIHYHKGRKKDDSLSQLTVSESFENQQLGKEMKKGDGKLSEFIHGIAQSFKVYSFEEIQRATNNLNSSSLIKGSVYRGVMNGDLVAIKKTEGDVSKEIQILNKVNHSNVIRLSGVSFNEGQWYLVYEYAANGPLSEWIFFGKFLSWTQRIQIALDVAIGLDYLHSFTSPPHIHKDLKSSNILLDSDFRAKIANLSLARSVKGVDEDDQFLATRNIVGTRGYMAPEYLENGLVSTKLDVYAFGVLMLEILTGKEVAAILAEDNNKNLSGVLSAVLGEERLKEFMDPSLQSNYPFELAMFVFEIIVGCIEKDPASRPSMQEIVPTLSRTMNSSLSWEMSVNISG
Sequence of PsLYR3 (A0A9D5BD18 entry or part of it): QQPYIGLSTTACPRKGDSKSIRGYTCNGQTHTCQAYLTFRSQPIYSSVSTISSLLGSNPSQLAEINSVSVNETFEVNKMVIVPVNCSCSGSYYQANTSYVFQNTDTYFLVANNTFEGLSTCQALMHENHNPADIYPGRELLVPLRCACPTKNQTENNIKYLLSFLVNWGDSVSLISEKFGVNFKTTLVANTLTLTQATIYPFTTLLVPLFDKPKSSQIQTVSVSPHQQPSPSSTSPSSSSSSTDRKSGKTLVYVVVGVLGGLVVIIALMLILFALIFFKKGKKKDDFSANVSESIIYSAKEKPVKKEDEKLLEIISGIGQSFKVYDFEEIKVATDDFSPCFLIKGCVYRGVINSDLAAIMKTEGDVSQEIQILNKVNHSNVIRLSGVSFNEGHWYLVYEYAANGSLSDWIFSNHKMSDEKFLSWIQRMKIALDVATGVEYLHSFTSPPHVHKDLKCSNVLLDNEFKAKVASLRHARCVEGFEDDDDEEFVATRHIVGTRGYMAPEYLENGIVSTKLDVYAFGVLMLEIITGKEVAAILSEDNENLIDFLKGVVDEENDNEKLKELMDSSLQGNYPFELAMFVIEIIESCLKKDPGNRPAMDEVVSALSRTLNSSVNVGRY
Sequence of LYR3 (G7KAT5 entry or part of it): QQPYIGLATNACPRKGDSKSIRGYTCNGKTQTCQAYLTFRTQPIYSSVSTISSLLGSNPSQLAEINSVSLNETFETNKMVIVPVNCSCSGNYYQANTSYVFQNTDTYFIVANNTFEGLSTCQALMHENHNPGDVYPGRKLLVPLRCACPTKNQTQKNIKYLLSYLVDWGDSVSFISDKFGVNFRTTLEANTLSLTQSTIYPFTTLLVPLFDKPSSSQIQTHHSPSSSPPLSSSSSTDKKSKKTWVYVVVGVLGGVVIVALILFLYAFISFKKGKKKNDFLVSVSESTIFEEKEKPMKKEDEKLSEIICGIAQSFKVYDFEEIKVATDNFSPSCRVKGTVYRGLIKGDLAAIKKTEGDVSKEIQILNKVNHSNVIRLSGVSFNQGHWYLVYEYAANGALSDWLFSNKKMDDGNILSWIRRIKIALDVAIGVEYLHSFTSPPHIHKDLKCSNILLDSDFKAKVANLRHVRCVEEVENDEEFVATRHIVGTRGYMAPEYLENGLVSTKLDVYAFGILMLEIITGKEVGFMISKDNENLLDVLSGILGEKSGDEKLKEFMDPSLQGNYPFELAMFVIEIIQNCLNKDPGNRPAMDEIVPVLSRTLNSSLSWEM
Sequence of GmLYR3-11 (I1LHL9 entry or part of it): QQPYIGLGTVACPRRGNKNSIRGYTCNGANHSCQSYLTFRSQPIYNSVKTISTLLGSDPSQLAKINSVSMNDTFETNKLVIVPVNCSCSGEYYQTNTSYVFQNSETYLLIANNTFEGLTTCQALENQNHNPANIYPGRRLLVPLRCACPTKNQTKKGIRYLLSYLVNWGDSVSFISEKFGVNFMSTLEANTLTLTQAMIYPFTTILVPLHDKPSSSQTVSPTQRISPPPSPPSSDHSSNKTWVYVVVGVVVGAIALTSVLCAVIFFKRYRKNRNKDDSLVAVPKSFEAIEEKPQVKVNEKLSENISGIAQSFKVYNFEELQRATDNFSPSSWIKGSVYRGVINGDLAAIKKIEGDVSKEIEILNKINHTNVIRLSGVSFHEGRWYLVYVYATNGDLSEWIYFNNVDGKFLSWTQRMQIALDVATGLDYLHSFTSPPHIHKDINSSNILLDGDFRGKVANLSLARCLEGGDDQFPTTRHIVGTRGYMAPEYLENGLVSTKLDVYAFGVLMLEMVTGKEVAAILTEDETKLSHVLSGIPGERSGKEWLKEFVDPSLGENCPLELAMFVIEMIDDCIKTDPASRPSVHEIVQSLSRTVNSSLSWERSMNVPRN
Sequence of GmLYR3-1 (A5YJW2 entry or part of it): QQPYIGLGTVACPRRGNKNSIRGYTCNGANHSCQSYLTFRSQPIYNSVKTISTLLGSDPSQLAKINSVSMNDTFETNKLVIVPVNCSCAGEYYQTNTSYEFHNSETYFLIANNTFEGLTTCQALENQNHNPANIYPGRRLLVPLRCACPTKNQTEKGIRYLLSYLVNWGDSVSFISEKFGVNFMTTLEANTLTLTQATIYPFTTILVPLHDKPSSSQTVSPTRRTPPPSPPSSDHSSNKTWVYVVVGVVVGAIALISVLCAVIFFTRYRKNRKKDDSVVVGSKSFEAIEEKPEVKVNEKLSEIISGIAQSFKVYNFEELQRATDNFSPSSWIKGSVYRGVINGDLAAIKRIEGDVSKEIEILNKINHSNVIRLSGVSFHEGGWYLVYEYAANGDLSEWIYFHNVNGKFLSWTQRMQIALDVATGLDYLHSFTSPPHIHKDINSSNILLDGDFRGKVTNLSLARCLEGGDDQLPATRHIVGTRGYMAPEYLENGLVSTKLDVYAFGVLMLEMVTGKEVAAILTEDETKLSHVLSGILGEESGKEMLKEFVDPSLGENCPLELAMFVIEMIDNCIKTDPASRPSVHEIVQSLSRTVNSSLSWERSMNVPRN

Molecule: CCCCCC/C=C\CCCCCCCC(=O)N[C@H]1[C@H](O[C@H]2[C@H](O)[C@@H](NC(C)=O)C(O)O[C@@H]2CO)O[C@H](CO)[C@@H](O)[C@@H]1O (stereo partly shown) [LCO-II(C16:1Δ9)]
- Ki (LYR3): > 5000 nM
- affinity / competition for binding to LYR3 (in words) (LYR3): very low

Molecule: CCCCCCCC/C=C\CCCCCCCC(=O)N[C@H]1[C@H](O[C@H]2[C@H](O)[C@@H](NC(C)=O)[C@H](O[C@H]3[C@H](O)[C@@H](NC(C)=O)[C@H](O[C@H]4[C@H](O)[C@@H](NC(C)=O)C(O)O[C@@H]4CO)O[C@@H]3CO)O[C@@H]2CO)O[C@H](CO)[C@@H](O)[C@@H]1O (stereo partly shown) [LCO-IV(C18:1Δ9)]
- binding of the radiolabeled photoactivatable ligand to the 100 kDa polypeptide in presence of excess competitor [1]: inhibited
- Ki (LYR3): 22 nM

Molecule: CCCCCC/C=C\CCCCC/C=C/C(=O)N[C@H]1[C@H](O[C@H]2[C@H](O)[C@@H](NC(C)=O)[C@H](O[C@H]3[C@H](O)[C@@H](NC(C)=O)[C@H](O[C@H]4[C@H](O)[C@@H](NC(C)=O)C(O)O[C@@H]4COS(=O)(=O)O)O[C@@H]3CO)O[C@@H]2CO)O[C@H](CO)[C@@H](O)[C@@H]1O (stereo partly drawn) [LCO-IV(S, C16:2Δ2, 9)]
- binding of the radiolabeled photoactivatable ligand to the 100 kDa polypeptide in presence of excess competitor [1]: completely abolished
- Kd (GmLYR3-1; read-out: Affinity (Kd)): 32 nM
- Kd (PvLYR3; read-out: Affinity (Kd)): 40 nM
- Kd (GmLYR3-11; read-out: Affinity (Kd)): 64 nM
- Kd (LjLYS12; read-out: Affinity (Kd)): 33 nM
- Kd (PsLYR3; read-out: Affinity (Kd)): 31 nM

Molecule: CCCCCCCC/C=C\CCCCCCCC(=O)N[C@H]1[C@H](O[C@H]2[C@H](O)[C@@H](NC(C)=O)[C@H](O[C@H]3[C@H](O)[C@@H](NC(C)=O)[C@H](O[C@H]4[C@H](O)[C@@H](NC(C)=O)C(O)O[C@@H]4COS(=O)(=O)O)O[C@@H]3CO)O[C@@H]2CO)O[C@H](CO)[C@@H](O)[C@@H]1O (stereo partly drawn) [LCO-IV(S, C18:1Δ9)]
- binding of the radiolabeled photoactivatable ligand to the 100 kDa polypeptide in presence of excess competitor [1]: inhibited
- Ki (LYR3): 13.5 nM
- Ki (GmLYR3-1): 12 nM
- Ki (PvLYR3): 13 nM
- Ki (GmLYR3-11): 19 nM
- Ki (LjLYS12): 7 nM
- Ki (PsLYR3): 16 nM

Molecule: CCCCCC/C=C\CCCCCCCC(=O)N[C@H]1[C@H](O[C@H]2[C@H](O)[C@@H](NC(C)=O)[C@H](O[C@H]3[C@H](O)[C@@H](NC(C)=O)[C@H](O[C@H]4[C@H](O)[C@@H](NC(C)=O)[C@H](O[C@H]5[C@H](O)[C@@H](NC(C)=O)C(O)O[C@@H]5CO)O[C@@H]4CO)O[C@@H]3CO)O[C@@H]2CO)O[C@H](CO)[C@@H](O)[C@@H]1O (stereo partly shown) [LCO-V(C16:1Δ9)]
- Ki (LYR3): 4.3 nM
- affinity / competition for binding to LYR3 (in words) (LYR3): slightly higher

Molecule: peptidoglycan
- affinity / competition for binding to LYR3 (in words) (LYR3): no competition

Results, then the molecule that gave them:

- Ki (LYR3): 1200 nM
Molecule: CC(=O)N[C@H]1[C@H](O[C@H]2[C@H](O)[C@@H](NC(C)=O)[C@H](O[C@H]3[C@H](O)[C@@H](NC(C)=O)C(O)O[C@@H]3CO)O[C@@H]2CO)O[C@H](CO)[C@@H](O[C@@H]2O[C@H](CO)[C@@H](O[C@@H]3O[C@H](CO)[C@@H](O[C@@H]4O[C@H](CO)[C@@H](O)[C@H](O)[C@H]4NC(C)=O)[C@H](O)[C@H]3NC(C)=O)[C@H](O)[C@H]2NC(C)=O)[C@@H]1O (stereo partly shown) [CO-VI]

- Ki (LYR3): 12000 nM
- Ki (GmLYR3-1): > 10000 nM
- Ki (PvLYR3): > 10000 nM
- Ki (GmLYR3-11): > 10000 nM
- Ki (LjLYS12): > 10000 nM
- Ki (PsLYR3): > 10000 nM
Molecule: CC(=O)N[C@H]1[C@H](O[C@H]2[C@H](O)[C@@H](NC(C)=O)[C@H](O[C@H]3[C@H](O)[C@@H](NC(C)=O)C(O)O[C@@H]3CO)O[C@@H]2CO)O[C@H](CO)[C@@H](O[C@@H]2O[C@H](CO)[C@@H](O[C@@H]3O[C@H](CO)[C@@H](O)[C@H](O)[C@H]3NC(C)=O)[C@H](O)[C@H]2NC(C)=O)[C@@H]1O (stereo partly shown) [CO-V]

- Ki (LYR3): 79 nM
Molecule: CCCCCC/C=C\CCCCCCCC(=O)N[C@H]1[C@H](O[C@H]2[C@H](O)[C@@H](NC(C)=O)[C@H](O[C@H]3[C@H](O)[C@@H](NC(C)=O)C(O)O[C@@H]3CO)O[C@@H]2CO)O[C@H](CO)[C@@H](O)[C@@H]1O (stereo partly shown) [LCO-III(C16:1Δ9)]

- Ki (LYR3): 15 nM
- Ki (GmLYR3-1): 70 nM
- Ki (PvLYR3): 23 nM
- Ki (GmLYR3-11): 140 nM
- Ki (LjLYS12): 42 nM
- Ki (PsLYR3): 50 nM
Molecule: CCCCCCCCCCCCCCCC(=O)N[C@H]1[C@H](O[C@H]2[C@H](O)[C@@H](NC(C)=O)[C@H](O[C@H]3[C@H](O)[C@@H](NC(C)=O)[C@H](O[C@H]4[C@H](O)[C@@H](NC(C)=O)C(O)O[C@@H]4CO)O[C@@H]3CO)O[C@@H]2CO)O[C@H](CO)[C@@H](O)[C@@H]1O (stereo partly shown) [LCO-IV(C16:0)]

- Ki (LYR3): 30 nM
Molecule: CCCCCC/C=C\CCCCC/C=C/C(=O)N[C@H]1[C@H](O[C@H]2[C@H](O)[C@@H](NC(C)=O)[C@H](O[C@H]3[C@H](O)[C@@H](NC(C)=O)[C@H](O[C@H]4[C@H](O)[C@@H](NC(C)=O)C(O)O[C@@H]4CO)O[C@@H]3CO)O[C@@H]2CO)O[C@H](CO)[C@@H](O)[C@@H]1O (stereo partly shown) [LCO-IV(C16:2Δ2, 9)]

- Ki (LYR3): 26 nM
- Ki (GmLYR3-1): 18 nM
- Ki (PvLYR3): 17 nM
- Ki (GmLYR3-11): 32 nM
- Ki (LjLYS12): 11 nM
- Ki (PsLYR3): 24 nM
Molecule: CCCCCCCCCCCCCCCC(=O)N[C@H]1[C@H](O[C@H]2[C@H](O)[C@@H](NC(C)=O)[C@H](O[C@H]3[C@H](O)[C@@H](NC(C)=O)[C@H](O[C@H]4[C@H](O)[C@@H](NC(C)=O)C(O)O[C@@H]4COS(=O)(=O)O)O[C@@H]3CO)O[C@@H]2CO)O[C@H](CO)[C@@H](O)[C@@H]1O (stereo partly drawn) [LCO-IV(S, C16:0)]

- Ki (LYR3): 21 nM
Molecule: CCCCCC/C=C\CCCCCCCC(=O)N[C@H]1[C@H](O[C@H]2[C@H](O)[C@@H](NC(C)=O)[C@H](O[C@H]3[C@H](O)[C@@H](NC(C)=O)[C@H](O[C@H]4[C@H](O)[C@@H](NC(C)=O)C(O)O[C@@H]4COS(=O)(=O)O)O[C@@H]3CO)O[C@@H]2CO)O[C@H](CO)[C@@H](O)[C@@H]1O (stereo partly drawn) [LCO-IV(S, C16:1Δ9)]

- Ki (LYR3): 7 nM
Molecule: CCCCCCCC/C=C\CCCCC/C=C/C(=O)N[C@H]1[C@H](O[C@H]2[C@H](O)[C@@H](NC(C)=O)[C@H](O[C@H]3[C@H](O)[C@@H](NC(C)=O)[C@H](O[C@H]4[C@H](O)[C@@H](NC(C)=O)C(O)O[C@@H]4COS(=O)(=O)O)O[C@@H]3CO)O[C@@H]2CO)O[C@H](CO)[C@@H](O)[C@@H]1O (stereo partly drawn) [LCO-IV(S, C18:2Δ2, 9)]
